The values that follow come from paper PMC11656837, “pH-Responsive Peptide Nanoparticles Deliver Macromolecules to Cells via Endosomal Membrane Nanoporation” (ACS Nano, 2024).

Some results are limits rather than exact numbers.

The test system of series [1] is HeLa cells. The following applies: 40 nM PE-III. An excerpt:
For this, we use PE-III, the third domain of the Pseudomonas exotoxin. This 25 kDa enzyme ADP ribosylates ribosomal elongation factor 2, thereby blocking protein synthesis and triggering apoptosis. […] Thus, apoptosis will occur only if an exogenous agent, such as a peptide, enables cytosolic delivery of the 4 × 3 nm PE-III protein, Figure 2A.
Comparison of peptide concentration midpoints requires a constant concentration of PE-III in each experiment. […] The major disadvantage of the PE-III assay to detect delivery is that only a few molecules of active PE-III delivered to the cytosol[36] will produce a positive result. To partly mitigate this effect in the assays described below, we use a constant 40 nM PE-III. At such a low concentration, each endosome will contain an average of fewer than one PE-III molecule if we assume passive entrapment of the cargo (see the Supporting Information).
The no treatment (no tx) control group contained cells but no peptide or PE-III enzyme. The Alamar Blue intensity of this group was defined as 100% viability. Media alone without cells was defined as 0% viability.
The concentration range used for each peptide was adjusted according to preliminary measurements of activity in this assay. We assessed PE-III delivery by measuring cell viability using Alamar Blue.
Fifteen thousand HeLa cells were seeded in a clear bottom, black-walled 96-well plate overnight at 37 °C with 5% CO2 in complete media (DMEM + phenol red +10% FBS + antimycotic/antibiotic + nonessential amino acids). Cells were then washed once in PBS and treated with PE-III and peptide in serum-free media without phenol red, with a 50 μL total volume. After a 2-day incubation with treatment, 50 μL of 10% Alamar blue reagent diluted in serum-free media was added directly to each well (5% Alamar blue final) and incubated for 1.5 h at 37 °C. The plate was then read at 550 equiv/590 em on a Biotek plate reader. Untreated cells were used as a negative control, and MelP5-treated cells served as a positive control.

The subject of series [2] is HeLa cells. The experiment in a line: Cytosolic delivery of green fluorescent protein (confocal microscopy). The class given is cell-based, human. Particulars: 25 μM peptide, 10 μM external GFP, overnight, 37 °C. On the procedure: To validate the dextran delivery experiments, we also delivered two separate fluorescent proteins of ∼27 kDa molecular weight to the cytosol of two different cell lines using C16-D-pHD108 (see Figure 7). HeLa cells were incubated overnight with 10 μM green fluorescent protein (GFP), and Chinese Hamster Ovary (CHO) cells were incubated overnight with 3.5 μM yellow fluorescent protein (YFP), with and without 25 μM C16-D-pHD108. Just before imaging, external GFP and YFP were washed off and replaced with TAMRA-dextran (red) or fluorescent protein mTurquoise (blue), respectively, to mark the cell boundaries and extracellular spaces. […] These cells, especially those incubated with the higher 10 μM concentration of GFP, show endosomes with entrapped FP, just as we observed for dextran delivery. […] The apparent nuclear concentration of GFP in cells incubated with GFP but no peptide is indistinguishable from the background. […]
For fluorescent protein or fluorescein-(Fab)2 fragment delivery, HeLa cells were incubated at 37 °C overnight in the presence of GFP with and without C16-D-pHD108 and CHO cells were incubated at 37 °C overnight with YFP in the presence and absence of C16-D-pHD108. […] Quantitation of delivered protein was performed by comparing measured intensities from microscopy images of standard protein solutions of known concentrations.

How the values of series [3] were obtained: This was done by incubating 50 μM peptide under each experimental condition for 60 min, followed by centrifugation at 1400g to remove large aggregates, and by subsequent centrifugation at 11,000g to remove intermediate aggregates. Peptide concentration in solution before and after centrifugation was determined by reverse phase HPLC.
Dried peptides were reconstituted in 50 μL of PBS at pH 7 or at pH 5. The solutions were bath-sonicated briefly and incubated at room temperature for 30 min. Three aliquots of each sample were removed for analysis: one before centrifugation, one after centrifugation for 5 min at 1400g, and one after centrifugation for 10 min at 11,000g. These aliquots were diluted and analyzed by reverse phase HPLC. The integrated peak area of the tryptophan fluorescence peak was determined for each sample.

Series [4] is described as follows: Tryptophan fluorescence emission (water exposure of Trp19). The following applies: buffer pH 7, no vesicles, 25 μM peptide in PBS. The class given is physicochemical. The text has this: Here, in Figure 8, we examine the solution behavior of C16-D-pHD108 using tryptophan fluorescence to measure the water exposure of the tryptophan residue at position 19, Figure 1, and using circular dichroism spectroscopy to measure the secondary structure.
In Figure 8B, we show tryptophan emission spectra for the same three samples.

Regarding `CCCCCCCCCCCCCCCC(=O)NCC(=O)N[C@@H](C(=O)NCC(=O)N[C@H](CCC(=O)O)C(=O)N[C@@H](C(=O)N[C@H](CC(C)C)C(=O)N[C@H](Cc1c[nH]cn1)C(=O)N[C@H](CCC(=O)O)C(=O)N[C@H](CC(C)C)C(=O)N[C@H](C)C(=O)N[C@H](CCC(=O)O)C(=O)NCC(=O)N[C@H](CC(C)C)C(=O)N1CCC[C@@H]1C(=O)N[C@H](CCC(=O)O)C(=O)N[C@H](CC(C)C)C(=O)N[C@H](CCC(N)=O)C(=O)N[C@H](CCC(=O)O)C(=O)N[C@H](Cc1c[nH]c2ccccc12)C(=O)N[C@@H](C(=O)N[C@H](Cc1c[nH]cn1)C(=O)N[C@H](C)C(=O)N[C@H](C)C(=O)N[C@H](CCC(N)=O)C(=O)N[C@H](CCC(N)=O)C(=O)N[C@H](CC(C)C)C(N)=O)[C@H](C)CC)C(C)C)[C@H](C)CC` [C16-D-pHD108], the “cells that undergo apoptosis” value with HeLa cells [1] (10 μM peptide) is reported as above 98%. Further, the “fold increase in activity over unmodified pHD108” value in the series with HeLa cells [1] (from EC50 in HeLa) is listed as 74 fold. For the same compound, in the series on HeLa cells [1] (read-out: EC50 (peptide concentration midpoint for PE-III-dependent apoptosis), HeLa, serum-free media, 48 h, 37 °C, Alamar Blue), the EC50 was 1900 nM. Further, in the series on HeLa cells [2], the “GFP concentration delivered to cell cytosol, median” value is “about 2 μM” and the “GFP delivered to cytosol, median as percent of the external concentration” value is on record as around 20%. In addition, in series [3] (50 μM, pH 7 then pH 5, centrifugation, reverse phase HPLC), the “solubility after dissolving at pH 7 and decreasing to pH 5” value is given as “became insoluble”. Also, the “solubility at pH 5” value in series [3] (from dried peptide, 50 μM in PBS pH 5, centrifugation 1400g then 11,000g, reverse phase HPLC) is “almost none of the peptides went into solution”. In series [3] (from dried peptide, 50 μM in PBS pH 7, bath sonication, 60 min, room temperature, centrifugation 1400g then 11,000g, reverse phase HPLC (Trp fluorescence peak area)), the “solubility and stability to centrifugation at pH 7” value is “remains soluble at pH 7 and is not removed by centrifugation”. In series [3] (pH 7, buffer or PBS), the “solubility in buffer / PBS at pH 7” value was “soluble in PBS and remained in solution at pH 7 for days”. The “tryptophan fluorescence emission maximum” value in series [4] is given as 330 nm.
